# In patent US12697313B2, “Methods of treating anemia using formoterol or a pharmaceutically acceptable salt thereof” (Dana-Farber Cancer Institute, Inc., priority 2022, dated 2026):
# “Also recorded” adds a separate entry of the source.
# Assays:
# [1] = test system: wild-type C57BL/6J mice; assay: Dose-specific effects of FF i.p. daily for 30 days in naive wild-type mice (Example 3); assay type: in vivo; details: for monocyte counts: FIG. 85B; for hemoglobin (Hb) levels: FIG. 84A; for RBC parameters (Hb, HCT %, RBC numbers): FIG. 84
# Procedure: As described in Example 1 above, formoterol fumarate (FF) treatment of wild-type mice was well-tolerated (FIGS. 14A-14E). The effects of varying doses of FF from 0.1 up to 1.0 mg/kg were evaluated in naive mice without any external stress of phenylhydrazine (PHZ). Specifically, varying doses of FF 0.1-0.3-0.5-1.0 mg/kg or vehicle (0.3% DMSO in saline) were administered via intraperitoneal (i.p.) injection in 10-12 week old wild-type C57BL/6J mice daily for a period of 30 days.
# [2] = test system: erythroid progenitors / bone marrow cells of wild-type mice; assay: Gene expression (bulk RNA sequencing, qPCR) in FF-treated naive wild-type mice; assay type: in vivo
# Source text: Data represented as mean±SEM. All comparisons are done with respect to Vehicle (DMSO-treated).
# This example describes the effects of formoterol fumarate treatment on expression of genes that have been linked to erythropoiesis including Klf9 (Ren et al., (2018) Yi Chuan. 40(11):998-1006 and Zhang et al., (2017) Blood 130(20):2161-2170), Klf13, Klf11 (Emery (2007) J. Cell. Biochem 100(4):1045-55), Hif1a (Wellmann, et al., (2004) J. Cell Sci. 117:175-94; Feng et al., (2022) Nature 610(7933):783-790; and Chen et al., (2019) N Engl J Med 381:1011-1022), Epas1 (Scortegagna et al. (2003) Blood 102:1634-40), Ddit4 (Yoshikawa (2023) Cancer Biomark. 37(4): 217-225), Cirbp, and Rora (Kim et al. (2008) Arterioscler Throm Vasc Biol 28(10):1796-802 and Chauvet et al., (2004) Biochem. J. 384:79-85). Differential gene expression in naïve wild-type mice was analyzed by bulk RNA sequencing according to an example workflow as depicted in FIG. 86.
# [3] = test system: mice; details: cited from earlier work
# [4] = test system: MDS patient-derived BM progenitors; assay: Semi-solid methylcellulose culture of MDS patient-derived BM progenitors; assay type: cell-based, human
# Source text: These findings prompted further testing to determine whether administration of FF in MDS patient-derived bone marrow (BM) samples improves erythroid differentiation in an ex vivo setting. To explore this, cells isolated from BM aspirates of de-identified MDS patients were procured. Next, the MDS patient-derived BM cells were placed in liquid erythroid differentiation culture, as previously described (Khajuria et al. (2018) Cell 173: 90-103), with or without FF treatment. […] To further validate this observation, the impact of FF from another vendor (Sigma) was tested on MDS patient-derived cells. […] Next, CD34+ progenitors were FACS-sorted from the MDS patient-derived BM aspirates and seeded in semi-solid methylcellulose culture media with vehicle (DMSO) or FF treatment. […] Therefore, the FDA-approved drug formoterol fumarate could be repurposed to reverse anemia in a range of hematological disorders.
# After genome editing, primary human HSPCs were washed twice with 1× PBS and mixed with semi-solid methylcellulose medium (H4034 StemCell Technologies) by brief vortexing. Cells were plated at a density of 2000 per well in a 6-well plate followed by incubation in a humidified chamber at 37° C. for 14 days. Imaging of the colonies was performed using EVOS M5000 Imaging system® (ThermoFisher Scientific). […]
# [5] = test system: mitochondrial biogenesis; details: cited from earlier work
# [6] = test system: phenylhydrazine (PHZ)-treated mice; assay: FF oral gavage in PHZ-treated mice at sub-lethal dose of 60 mg/kg; assay type: in vivo
# [7] = test system: wild-type mice; assay: FF oral gavage in wild-type mice at steady-state; assay type: in vivo
# Source text: N=5 mice per group. All comparisons were done w.r.t. vehicle treated (DMSO) controls.
# [8] = 14 days of daily o.g., PHZ 60 mg/kg, FIG. 59
compound,measurement,setting,value
"COc1ccc(C[C@@H](C)NC[C@H](O)c2ccc(O)c(NC=O)c2)cc1.O=C(O)/C=C/C(=O)O [FF, (E)-but-2-enedioic acid;N-[2-hydroxy-5-[(1R)-1-hydroxy-2-[[(2R)-1-(4-methoxyphenyl)propan-2-yl]amino]ethyl]phenyl]formamide]",monocyte counts,[1]; 0.1 mg/kg and 1.0 mg/kg,but not at the lowest dose (0.1 mg/kg) or highest dose (1.0 mg/kg)
same,hemoglobin (Hb) levels,[1]; 0.1 mg/kg to 0.5 mg/kg,increased with dose
same,hematocrit (HCT) % and RBC counts,"[1]; 0.3 mg/kg and 0.5 mg/kg, FIG. 84B-84C",elevated
same,body weights,[1]; 1.0 mg/kg,pronounced increase in body weights
same,"RBC parameters (Hb, HCT %, RBC numbers)",[1]; 1.0 mg/kg,this effect is not observed
same,hemoglobin (Hb) levels,[1]; 1.0 mg/kg,no effect was observed
same,white blood cell (WBC) count,"[1]; 1.0 mg/kg, FIG. 85A",modestly impacts WBC; also recorded: only marginally affected
same,body weights,[1]; 0.1-0.5 mg/kg,modestly increasing body weights
same,% change in body weights,"[1]; 0.1/0.3/0.5/1.0 mg/kg daily i.p., FIG. 83",increases body weights in a dose-dependent manner; also recorded: showed a dose-dependent increase in body-weight
same,"RBC parameters (Hb, HCT %, RBC numbers)",[1]; 0.3 and 0.5 mg/kg,enhance and sustain RBC parameters
same,monocyte counts,[1]; 0.3 and 0.5 mg/kg,modestly impacts monocyte counts; also recorded: marginally affected
same,platelets,"[1]; any dose, FIG. 85C",No significant effect was observed
same,white blood count (WBC) numbers,"[1]; lowest doses, FIG. 85A",does not influence
same,HIF-1α expression in bone marrow cells,"[2]; 0.5mg/kg ip 3× weekly, qPCR, FIG. 88A",enhances HIF-1α expression; also recorded: both significantly increased
same,VEGFA expression in bone marrow cells,"[2]; 0.5mg/kg ip 3× weekly, qPCR, FIG. 88B",enhances; also recorded: both significantly increased
same,"expression of Klf9, Klf13, Klf11, Hif1a, Epas1, Ddit4, Cirbp, Rora in erythroid progenitors from bone marrow","[2]; bulk RNA sequencing, FF-treated vs vehicle-treated, FIG. 87",increased in FF-treated mice
same,muscle structure and function after injury,[3]; literature,improve muscle structure and function after injury
same,muscle mass,[3]; mice (Gehrig et al. 2010; Ryall et al. 2008),increase muscle mass
same,"viability, myelopoiesis (CFU-GM), megakaryopoiesis (CFU-Mk)",[4]; FIG. 11D,"produced insignificant effects on the viability, myeloid and megakaryocytic differentiation; also recorded: does not affect viability, myelopoiesis (CFU-GM) or megakaryopoiesis (CFU-Mk)"
same,erythroid progenitors BFU-E and CFU-E,"[4]; n=23 MDS patients, vs DMSO, FIG. 11A-11C",significantly boosted both BFU-E and CFU-E formation; also recorded: enhances differentiation of erythroid progenitors in MDS patient-derived bone marrow cells
same,expression of mtDNA encoded genes,[5]; Arif et al. 2019,upregulates the expression of mtDNA encoded genes
same,mitochondrial oxygen consumption rates (OCR),[5]; in vitro and ex vivo (Arif et al. 2019),promotes mitochondrial oxygen consumption rates (OCR)
same,mitochondrial biogenesis,[5]; several in vitro and in vivo models (literature),reported to augment mitochondrial biogenesis
same,granulocyte monocyte progenitors (GMP),"[6]; 14 days of daily o.g., FIG. 60",does not affect granulocyte monocyte progenitors (GMP)
same,megakaryocytic progenitors (MkP),"[6]; 14 days of daily o.g., FIG. 60",increases megakaryocytic progenitors (MkP)
same,mitochondrial membrane potential (TMRE staining) in BMPs,[6]; [8],increases viability and mitochondrial membrane potential
same,viability of BMPs,[6]; [8],increases viability and mitochondrial membrane potential
same,body weights,"[6]; o.g., PHZ 60 mg/kg, FIG. 56",does not affect body weights
same,RBC parameters (HCT % and Hb) in peripheral blood,"[6]; o.g., PHZ 60 mg/kg, FIG. 57",increases RBC parameters
same,WBC and platelets in peripheral blood,"[6]; o.g., PHZ 60 mg/kg, FIG. 58",does not affect WBC and platelets
same,"RBC parameters (HCT %, RBC numbers, Hb) in peripheral blood","[7]; 14 days of daily o.g., FIG. 48",increases RBC parameters
same,"WBCs, monocytes and platelets in peripheral blood","[7]; 14 days of daily o.g., FIG. 49",does not affect WBC parameters
same,mitochondrial membrane potential (TMRE staining) in BMPs,"[7]; 14 days of daily o.g., FIG. 50",increases viability and mitochondrial membrane potential
same,viability of bone marrow progenitors (BMPs),"[7]; 14 days of daily o.g., FIG. 50",increases viability and mitochondrial membrane potential
same,MEP and MkP,"[7]; 14 days of daily o.g., FIG. 51",increases megakaryocyte erythroid progenitors (MEP) and megakaryocytic progenitors (MkP)
same,granulocyte monocyte progenitors (GMP),"[7]; 14 days of daily o.g., FIG. 51",does not affect granulocyte monocyte progenitors (GMP)
same,% change in body weights,"[7]; o.g., steady state, FIG. 53",mildly increases body weights
